Measurements published in patent US20220017516A1, “LOX INHIBITORS” (THE INSTITUTE OF CANCER RESEARCH: ROYAL CANCER HOSPITAL, priority 2018, published 2022).

How the values were obtained:
diamine oxidase (DAO) = target: T1, diamine oxidase (DAO) (Sus scrofa, UniProt Q9TRC7); assay: Diamine oxidase catalytic activity assay (ROS Glo); format: biochemical
T1 construct: purchased Sigma
T1 sequence (Q9TRC7 25-755): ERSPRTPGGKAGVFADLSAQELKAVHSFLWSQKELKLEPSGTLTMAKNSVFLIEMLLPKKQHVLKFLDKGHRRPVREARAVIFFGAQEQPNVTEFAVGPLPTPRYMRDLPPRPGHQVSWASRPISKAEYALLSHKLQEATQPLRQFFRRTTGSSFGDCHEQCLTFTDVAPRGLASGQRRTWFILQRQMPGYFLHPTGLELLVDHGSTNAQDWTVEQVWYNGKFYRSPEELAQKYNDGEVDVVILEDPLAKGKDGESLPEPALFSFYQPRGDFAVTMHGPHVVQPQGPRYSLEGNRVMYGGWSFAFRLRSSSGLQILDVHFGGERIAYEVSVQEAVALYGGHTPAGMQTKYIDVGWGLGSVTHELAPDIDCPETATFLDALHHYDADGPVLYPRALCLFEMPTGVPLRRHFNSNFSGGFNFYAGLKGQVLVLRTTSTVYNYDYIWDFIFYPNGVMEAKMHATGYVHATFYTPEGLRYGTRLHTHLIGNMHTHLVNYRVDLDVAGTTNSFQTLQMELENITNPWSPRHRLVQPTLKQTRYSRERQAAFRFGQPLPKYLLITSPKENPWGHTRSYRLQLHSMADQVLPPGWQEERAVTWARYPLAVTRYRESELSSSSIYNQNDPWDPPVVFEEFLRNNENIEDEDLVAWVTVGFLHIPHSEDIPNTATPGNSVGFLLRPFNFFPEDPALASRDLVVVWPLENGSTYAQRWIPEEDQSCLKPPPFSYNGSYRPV
Protocol: The diamine oxidase (DAO) catalytic activity was determined using the Promega ROS Glo assay kit (G8821); DAO was purchased from Sigma and cadaverine dihydrochloride was used as the substrate at a concentration of 97.8 mM. The concentrations of the chemical inhibitors were the same as in the MAO assays. Luminescence was measured with an integration time of 500 ms/well using a SpectaMax M5 plate reader and resulting IC50 values were calculated using GraphPad Prism software.
(§1) In another setting, the DAO and MAO assays were performed in 384-well plates (Greiner) and test compound was added using a Labcyte Echo™ Acoustic Handler for the same final concentrations as in the 96-well setting. Luminescence was measured with BMG LABTECH PHERAstar FS plate reader.

[1] = target: T2, monoamine oxidase B (MAO-B) (Homo sapiens, UniProt P27338); assay: Amine oxidase activity assay (MAO-Glo), MAO-B; format: biochemical
T2 construct: purchased Sigma M7441
T2 sequence (P27338 1-520): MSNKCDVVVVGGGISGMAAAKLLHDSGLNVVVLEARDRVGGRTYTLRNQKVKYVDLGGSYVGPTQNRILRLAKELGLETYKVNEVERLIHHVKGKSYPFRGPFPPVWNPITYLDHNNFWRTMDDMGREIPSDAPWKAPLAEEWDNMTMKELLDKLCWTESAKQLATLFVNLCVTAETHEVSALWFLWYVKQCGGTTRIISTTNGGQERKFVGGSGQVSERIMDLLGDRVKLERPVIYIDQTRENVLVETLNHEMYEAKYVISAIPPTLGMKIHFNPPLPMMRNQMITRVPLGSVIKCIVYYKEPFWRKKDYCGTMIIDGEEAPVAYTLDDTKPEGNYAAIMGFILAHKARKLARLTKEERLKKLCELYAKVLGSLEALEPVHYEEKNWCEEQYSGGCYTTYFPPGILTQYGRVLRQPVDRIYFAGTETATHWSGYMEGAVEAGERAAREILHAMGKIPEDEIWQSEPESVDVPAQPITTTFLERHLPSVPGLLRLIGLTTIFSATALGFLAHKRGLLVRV
Protocol: The Promega MAO-Glo assay kit (V1402) was used to assess monoamine oxidase A (MAO-A) and monoamine oxidase B (MAO-B) activity. MAO substrate was prepared at 80 μM with the specific MAO-A/B reaction buffer. Overall, 0.5 μl test compound was added to 25 μl MAO substrate at 100, 30, 10, 3, 1, 0.3, 0.1, 0.03, 0.01 and 0.003 μM (final concentration) in a 96-well white, flat bottom plate. Overall, 25 μl of 1:520 dilution of MAO-A enzyme (Promega, V1452) or 25 μl of 1:52 dilution of MAO-B enzyme (Sigma, M7441) in specific MAO-A/B reaction buffer was added to each well (enzyme prepared at 2×final concentration) and plates were incubated for 1 h at room temperature. Finally, 50 μl per well luciferin detection reagent was added and plates were incubated for 20 min at room temperature, protected from light. Luminescence was measured with an integration time of 500 ms per well using a SpectaMax M5 plate reader and resulting IC50 values were calculated using GraphPad Prism software.
as §1

LOX = target: T3, LOX (Sus scrofa, UniProt P45845); assay: LOX isoform activity assay (ROS Glo), LOX; format: biochemical, pig; conditions: 1 h incubation with enzyme
T3 construct: LOX was extracted from pig skin by previously described methods; from tissue; host or cells: pig skin
T3 sequence (P45845 1-249): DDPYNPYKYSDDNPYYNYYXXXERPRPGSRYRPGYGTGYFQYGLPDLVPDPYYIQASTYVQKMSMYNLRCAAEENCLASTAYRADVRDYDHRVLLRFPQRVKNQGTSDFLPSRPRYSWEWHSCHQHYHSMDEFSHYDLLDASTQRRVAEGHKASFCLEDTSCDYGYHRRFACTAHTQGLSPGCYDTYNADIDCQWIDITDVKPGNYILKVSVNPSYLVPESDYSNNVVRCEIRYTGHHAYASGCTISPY
Outline: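 Pig-skin LOX or recombinant LOXL3 preincubated 1 h with compound (100-0.003 μM final) in pH 9 CHES buffer containing 1 M urea. Then 19.56 mM cadaverine plus 25 μM H2O2 added, 1.5 h (LOX) or 1 h (LOXL3) at room temperature. ROS-Glo luminescence; IC50 from curve fit.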

Row | SMILES | IC50 (diamine oxidase (DAO)) [µM] | IC50 [1] [µM] | IC50 (LOX) [µM]
1 | CCOc1ccc(N2C[C@H]3CN(CCS(=O)(=O)CCN)C[C@@H]2C(C)(C)C3)cc1 [Example 1, 2-((2-((1R,5S)-6-(4-ethoxyphenyl)-9,9-dimethyl-3,6-diazabicyclo[3.2.2]nonan-3-yl)ethyl)sulfonyl)ethan-1-amine] | > 100 | > 100 | 
2 | CCOc1ccc(N2C[C@H]3CN(C(=O)CS(=O)(=O)CCN)C[C@@H]2C(C)(C)C3)cc1 [Example 7, 2-((2-aminoethyl)sulfonyl)-1-((1S,5S)-6-(4-ethoxyphenyl)-9,9-dimethyl-3,6-diazabicyclo[3.2.2]nonan-3-yl)ethan-1-one] | > 100 | > 100 | 
3 | NCCS(=O)(=O)CC(=O)N1CCN(c2ccccc2)CC1 [Example 13, 2-((2-Aminoethyl)-sulfonyl)-1-(4-phenylpiperazin-1-yl)ethan-1-one] | > 100 | > 100 | 25
4 | CCOC(=O)CCC(C(=O)N1C[C@@H]2C[C@H]1CN2c1ccc(OCC)cc1)S(=O)(=O)CCN (stereo partly drawn) [Example 41, ethyl 4-((2-aminoethyl)sulfonyl)-5-((1S,4S)-5-(4-ethoxyphenyl)-2,5-diazabicyclo[2.2.1]heptan-2-yl)-5-oxopentanoate] | > 100 | > 100 | 41
5 | CCOc1ccc(N2C[C@H]3CN(C(=O)NCCS(=O)(=O)CCN)C[C@@H]2C(C)(C)C3)cc1 [Example 38, (1S,5S)—N-(2-((2-aminoethyl)sulfonyl)ethyl)-6-(4-ethoxyphenyl)-9,9-dimethyl-3,6-diazabicyclo[3.2.2]nonane-3-carboxamide] | > 100 |  | 8.8
6 | CCOc1ccc(N2C[C@@H]3C[C@H]2CN3C(=O)C2(S(=O)(=O)CCN)CC2)cc1 [Example 42, (1-((2-Aminoethyl)sulfonyl)cyclopropyl)((1S,4S)-5-(4-ethoxyphenyl)-2,5-diazabicyclo[2.2.1]heptan-2-yl)methanone] | > 100 | > 100 | > 100
7 | NCCS(=O)(=O)CC(=O)N1CCN(c2ncccn2)CC1 [Example 12, 2-((2-Aminoethyl)-sulfonyl)-1-(4-(pyrimidin-2-yl)-piperazin-1-yl)ethan-1-one] | > 100 | > 100 | 
8 | CCOc1ccc(N2C[C@@H]3C[C@H]2CN3C(=O)CS(=O)(=O)CCN)cc1 [Example 8, 2-((2-aminoethyl)-sulfonyl)-1-((1S,4S)-5-(4-ethoxyphenyl)-2,5-diazabicyclo-[2.2.1]heptan-2-yl)-ethan-1-one] | > 100 | > 100 | 
9 | Cc1ccc(S(=O)(=O)N2C[C@H]3CN(C(=O)CS(=O)(=O)CCN)C[C@H]3C2)cc1 [Example 11, 2-((2-aminoethyl)-sulfonyl)-1-(cis-5-tosylhexahydro-pyrrolo[3,4-c]pyrrol-2(1H)-yl)ethan-1-one] | > 100 | > 100 | 
10 | CCOc1ccc(N2C[C@@H]3C[C@H]2CN3CCS(=O)(=O)CCN)cc1 [Example 2, 2-((2-((1S,4S)-5-(4-ethoxyphenyl)-2,5-diazabicyclo[2.2.1]heptan-2-yl)ethyl)sulfonyl)-ethan-1-amine] | > 100 | > 100 | 
11 | CCOc1ccc(N2C[C@H]3CN(c4ccc(S(=O)(=O)CCN)cc4)C[C@@H]2C(C)(C)C3)cc1 [Example 33, 2-((4-((1R,5S)-6-(4-ethoxyphenyl)-9,9-dimethyl-3,6-diazabicyclo [3.2.2]nonan-3-yl)phenyl)sulfonyl)ethan-1-amine] |  | > 100 | 
12 | CCOc1ccc(N2CC3CN(CCS(=O)(=O)CCN)CC3C2)cc1 (stereo not shown) [Example 4, 2-((2-(5-(4-ethoxyphenyl)hexahydropyrolo [3,4-c]pyrrol-2(1H)-yl)ethyl)sulfonyl)ethan-1-amine] |  | > 100 | 
